In EP2794556B1, “BIS-(ARYL/HETEROARYL)-METHYLENE COMPOUNDS, PHARMACEUTICAL COMPOSITIONS CONTAINING SAME AND THEIR USE FOR TREATING CANCER” (Gleason, James L., priority 2011, dated 2013):

What was measured:
[1] = biological target: T1, HDAC6 (Homo sapiens, UniProt Q9UBN7); assay: Fluorogenic HDAC inhibition assay, purified enzyme
T1 sequence (Q9UBN7 1-1215): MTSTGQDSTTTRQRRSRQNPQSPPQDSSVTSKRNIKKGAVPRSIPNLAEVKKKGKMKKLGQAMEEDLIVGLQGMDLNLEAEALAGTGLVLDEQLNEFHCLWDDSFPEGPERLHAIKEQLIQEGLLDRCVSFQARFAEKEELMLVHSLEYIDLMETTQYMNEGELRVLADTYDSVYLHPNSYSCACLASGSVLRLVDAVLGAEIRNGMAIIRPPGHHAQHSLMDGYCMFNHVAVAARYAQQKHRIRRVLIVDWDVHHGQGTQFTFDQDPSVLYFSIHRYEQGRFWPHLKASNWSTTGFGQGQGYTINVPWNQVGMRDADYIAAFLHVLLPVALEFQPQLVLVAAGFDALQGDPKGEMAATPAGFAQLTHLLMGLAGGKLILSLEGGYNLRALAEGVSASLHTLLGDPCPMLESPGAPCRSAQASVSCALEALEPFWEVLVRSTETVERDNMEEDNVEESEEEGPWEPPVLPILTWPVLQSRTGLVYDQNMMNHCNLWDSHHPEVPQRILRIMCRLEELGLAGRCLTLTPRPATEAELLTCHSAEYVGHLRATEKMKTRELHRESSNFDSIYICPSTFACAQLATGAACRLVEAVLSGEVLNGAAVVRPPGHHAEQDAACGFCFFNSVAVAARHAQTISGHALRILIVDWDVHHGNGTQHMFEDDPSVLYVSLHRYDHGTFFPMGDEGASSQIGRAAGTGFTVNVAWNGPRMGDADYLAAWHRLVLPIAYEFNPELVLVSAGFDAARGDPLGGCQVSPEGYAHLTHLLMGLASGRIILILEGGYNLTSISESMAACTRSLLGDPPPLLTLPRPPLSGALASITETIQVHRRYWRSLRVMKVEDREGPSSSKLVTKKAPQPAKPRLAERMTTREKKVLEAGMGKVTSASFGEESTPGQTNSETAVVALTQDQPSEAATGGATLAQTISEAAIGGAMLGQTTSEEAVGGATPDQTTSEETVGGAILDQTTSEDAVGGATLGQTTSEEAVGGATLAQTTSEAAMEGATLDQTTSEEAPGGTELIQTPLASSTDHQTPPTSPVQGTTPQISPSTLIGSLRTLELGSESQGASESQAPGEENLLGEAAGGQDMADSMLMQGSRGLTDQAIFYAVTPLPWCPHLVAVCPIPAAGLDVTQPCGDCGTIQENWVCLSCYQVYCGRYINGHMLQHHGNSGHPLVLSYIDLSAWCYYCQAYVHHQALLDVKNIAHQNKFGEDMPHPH
Method: (§3) Fluorogenic HDAC inhibition assay. Boc-Lys(Ac)-7-amino-4-methylcoumarin (Boc-Lys(Ac)-AMC) was used as substrate for the HDAC assays. […] Trypsin was used to stop the reaction, releasing free AMC. The trypsin solution was prepared as follow: trypsin was dissolved in HDAC buffer to give a concentration of 10 mg/mL. Release of AMC was monitored by measuring the fluorescence at 460 nm (lex = 390 nm) with a microplate reader (SpectraMax Gemini) at 37 °C. The AMC signals were recorded against a blank with buffer, substrate and trypsin but without the enzyme. All experiments were carried out at least in triplicate.
(§4) For standard HDAC assays, 50 µL of HDAC buffer was mixed with 10 µL of diluted enzyme solution in HDAC buffer at room temperature. The HDAC reaction was started by adding 40 µL of substrate solution in HDAC buffer followed by 30 min of incubation with stirring at 37 °C. The reaction was stopped by adding 100 µL of trypsin solution. After a 10 min incubation with stirring at 37 °C, the release of AMC was monitored by measuring the fluorescence. For HDAC inhibition assays, inhibitor diluted in 50 µL of HDAC buffer was mixed with 10 µL of diluted enzyme solution in HDAC buffer at room temperature. The HDAC reaction was started by adding 40 µL of substrate solution in HDAC buffer followed by 30 min of incubation with stirring at 37 °C. The reaction was stopped by adding 100 µL of trypsin solution. After a 10 min incubation with stirring at 37 °C, the release of AMC was monitored by measuring the fluorescence.

[2] = biological target: HDAC3 (Homo sapiens, UniProt O15379); assay: Fluorogenic HDAC inhibition assay, purified enzyme
Method: as §3, §4

[3] = test system: SCC4 cells; assay: MTS cell proliferation assay; assay type: cell-based, human; settings: vitamin D resistant SCC4 cells, Figures 7c, 8 and 9
Text: Dose-dependent effects of compounds on cell cycle progression was monitored using a CellTiter 96 Aqueous Non-Radioactive Cell Proliferation Assay Kit (Promega). The assay composed of solutions of a novel tetrazolium compound (MTS) and an electron coupling reagent (phenazine methosulfate; PMS). MTS is reduced by metabolically active cells into a soluble formazan product that absorbs at 490nm. The quantity of formazan product absorbing at 490nm is directly proportional to the number of living cells.

[4] = biological target: T2, VDR (Homo sapiens, UniProt P11473); assay: VDR agonism by induction of CYP24 gene expression (RT/PCR); assay type: cell-based; settings: for VDR agonist activity and potency, induction of CYP24 gene expression: SCC25 cells, Fig. 1b, 1d
T2 construct: endogenous in cells; host or cells: SCC25 human head and neck squamous carcinoma cells
T2 sequence (P11473 1-427): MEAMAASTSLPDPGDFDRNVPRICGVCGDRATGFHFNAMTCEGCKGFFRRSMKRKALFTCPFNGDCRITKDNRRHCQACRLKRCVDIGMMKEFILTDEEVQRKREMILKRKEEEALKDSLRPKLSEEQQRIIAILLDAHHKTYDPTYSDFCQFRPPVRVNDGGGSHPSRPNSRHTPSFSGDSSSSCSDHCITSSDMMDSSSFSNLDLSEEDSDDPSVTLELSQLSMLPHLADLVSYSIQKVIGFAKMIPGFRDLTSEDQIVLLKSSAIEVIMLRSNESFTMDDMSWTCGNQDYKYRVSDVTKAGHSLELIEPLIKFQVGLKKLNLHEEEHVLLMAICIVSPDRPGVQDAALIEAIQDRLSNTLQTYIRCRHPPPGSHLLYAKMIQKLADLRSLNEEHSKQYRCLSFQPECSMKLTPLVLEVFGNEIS
Method: Cell culture. Human head and neck squamous carcinoma cell lines SCC4 and SCC45 and mouse HNSCC line AT84 were purchased from American Type Culture Collection (Manassas, VA) and cultured under recommended conditions. Cells were split at 60-70% confluence, as follows: cells were washed with filtered PBS, split with a 5-10 min incubation with 1 ml Trypsin-EDTA (Invitrogen, Carlsbad, CA) in PBS, collected with medium. Following centrifugation, the supernatant was removed. Cell pellets were resuspended with DMEM-F12, and distributed on fresh media-containing dishes. For treatments, AT84 cells were split and 24h later medium was changed to DMEM + 10% charcoal-stripped FBS.
RNA isolation and RT/PCR analysis. […]. Proc. Nat. Acad. Sci. U.S.A. 105, 8250-55. and Lamblin, M.et al Bioorganic & Medicinal Chemistry (2010) 18:4119-4137. After treatment, cells were washed with PBS, homogenized with 1ml TRIzol Reagent (Invitrogen, Carlsbad, CA), kept at room temperature for 2-5 min, collected and kept at -80 °C for at least 1h. After, thawing 0.2 ml chloroform was added. After vigorous mixing and storing for 10min, mixtures were centrifuged (10,000rpm, 15 min, 4 °C) and the upper transparent layer was transferred to a new tube. 0.5 ml isopropanol was added and the new solution was mixed. After centrifuging at 4 °C, the supernatant was discarded and 1ml of 75% ethanol was added. After centrifuging and discarding the supernatant, the pellet was air-dried for 5-10 min, and then dissolved in ddH2O. RNA concentrations were measured using a spectrophotometer, and 1-3µg of RNA were loaded for reverse transcriptase reactions (total volume: 20 µl). 80µl of ddH2O was added to the RT-product, and 1.5µl of that was used as template for the PCR reaction. Reverse transcriptase (Super Script II) was purchased from Invitrogen (Carlsbad, CA). DNA polymerase and dNTP's were ordered from Fermentas (Glen Burnie, MD).
(§1) Test compounds (10 µM) were first screened for VDR agonism by analysis of induction of CYP24 gene expression in 1,25D-sensitive human SCC25 cells. […]. Consistent with binding to the VDR, induction of CYP24 by compound JF-B01, compound JF-B53 or compound 16 (JF-B54) was blocked (Fig. 1c). […]

[5] = biological target: T2, VDR; assay: Chromatin immunoprecipitation (ChIP) assay, CYP24 promoter, SCC25 cells; assay type: cell-based; settings: Fig. 1e
Method: Chromatin immunoprecipitation assays. ChIP assays were performed with sonicated extracts of SCC25 cells as described (see Wang, T.-T. et al. J Immunol (2004) 173:2909-2912). […] Immunoprecipitations were performed using normal rabbit IgG, anti-VDR antibody (c-20) (Santa Cruz Biotechnology, Santa Cruz, CA). […].
as §1

[6] = test system: SCC4 cells; assay: LDH cytotoxicity assay; assay type: cell-based, human; settings: vitamin D resistant SCC4 cells, Figures 10 and 11
Method: The cytotoxic effects of compounds were screened using a Cytotoxicity Assay Kit (Cayman Chemical), which measures release of the soluble […] enzyme lactate dehydrogenase (LDH) from dying cells into the culture medium using a coupled two-step reaction. LDH in the media catalyzes the reduction of NAD+ to NADH and H+ by oxidation of lactate to pyruvate. LDH-catalyzed NADH production is then measured by following diaphorase catalyzed NADH-dependent reduction of a tetrazolium salt (INT) to highly-colored formazan which absorbs strongly at 490-520 nm.
The proliferation assays above indicated the cessation of growth.

[7] = test system: SCC25 cells; assay: EdU cell growth assay; settings: higher concentrations
Method: (§5) EdU cell growth assay. Click-iT EdU Alexa Fluor high-throughput imaging (HCS) assay for cell proliferation. HCS assays were performed on AT84 mouse squamous carcinoma cell line (ATCC) following the manufacturer's instruction (Molecular Probes, Invitrogen). […] All samples were in triplicate.

[8] = test system: total intracellular HDAC activity in SCC4 cells; assay: HDACi activity with fluorogenic substrate in live cells; assay type: cell-based, human; settings: increasing concentration, Fig. 2a, b
Text: (§2) This assay measures the inhibition of total intracellular HDAC activity and determines the capacity of compounds to inhibit HDACs in the form of their naturally occurring complexes.

[9] = test system: total intracellular HDAC activity in SCC25 cells; assay: as above; assay type: cell-based, human; settings: increasing concentration, Fig. 2a, b
Text: as §2

[10] = test system: SCC4 cells; assay: EdU cell growth assay
Method: as §5

Sequence of HDAC3 (O15379 whole entry, species assumed): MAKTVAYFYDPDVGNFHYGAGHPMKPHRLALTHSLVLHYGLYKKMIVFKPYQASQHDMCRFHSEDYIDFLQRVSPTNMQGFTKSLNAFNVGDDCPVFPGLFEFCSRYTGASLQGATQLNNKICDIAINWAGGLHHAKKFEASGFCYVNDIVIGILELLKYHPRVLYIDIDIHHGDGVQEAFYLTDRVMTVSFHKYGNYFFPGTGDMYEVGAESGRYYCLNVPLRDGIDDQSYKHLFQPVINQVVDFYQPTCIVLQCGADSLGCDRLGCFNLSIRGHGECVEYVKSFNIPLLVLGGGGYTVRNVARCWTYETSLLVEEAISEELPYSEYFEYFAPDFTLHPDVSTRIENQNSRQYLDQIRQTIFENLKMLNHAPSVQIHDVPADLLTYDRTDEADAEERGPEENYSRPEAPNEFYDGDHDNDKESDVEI
Sequence of HDAC3 (Q9Y618 395-489 partner limits assumed, species assumed): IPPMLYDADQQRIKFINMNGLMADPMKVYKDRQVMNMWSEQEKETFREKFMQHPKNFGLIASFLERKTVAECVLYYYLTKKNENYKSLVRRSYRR

Compound	IC50 [1]	IC50 [2]	antiproliferative potency [3]	VDR agonist activity and potency, induction of CYP24 gene expression [4]	binding of the VDR to the vitamin D response element in the proximal promoter of the CYP24 gene [5]	cytotoxicity, LDH release [6]	EdU incorporation at higher concentrations [7]	HDACi activity, substrate deacetylation [8]	HDACi activity, substrate deacetylation [9]	inhibition of proliferation, EdU incorporation ([10]; 1,25D-resistant SCC4 cells, Fig. 2e, f)	EdU incorporation at higher concentrations ([10]; SCC4 cells, higher concentrations)	induction of CYP24 by the compound was blocked ([4]; Fig. 1c, blocking agent not given)
CCC(CC)(c1ccc(OCC(=O)NO)c(C)c1)c1ccc(OC[C@H](O)C(C)(C)C)c(C)c1 [JF-C71, N-Hydroxy-2-(4-(3-(4-((2R)-hydroxy-3,3-dimethylbutoxy)-3-methylphenyl)pentan-3-yl)-2-methylphenoxy)acetamide]	26.1 µM	22 µM	low micromolar potency	VDR agonists with similar potencies	induced binding of the VDR							
CCC(CC)(c1ccc(OCC(=O)NO)cc1)c1ccc(OCC(O)C(C)(C)C)c(C)c1 (centres unmarked) [DK-366, N-hydroxy-2-(4-(3-(4-(2-hydroxy-3,3-dimethylbutoxy)-3-methylphenyl)pentan-3-yl)phenoxy)acetamide]	6.6 to 8.2 µM		low micromolar potency			good cytotoxicity						
CCC(O)(CC)COc1ccc(C(CC)(CC)c2ccc(OCC(=O)NO)c(C)c2)cc1C [JF-B54, 2-(4-(3-(4-(2-Ethyl-2-hydroxybutoxy)-3-methylphenyl)pentan-3-yl)-2-methylphenoxy)-N-hydroxyacetamide]	31.5 µM	29.9 µM		VDR agonist activity, but with reduced potency			completely abolished EdU incorporation	most potent	most potent	completely	completely abolished EdU incorporation	blocked
CCC(CC)(c1ccc(OCC(=O)NO)c(C)c1)c1ccc(OC[C@@H](O)C(C)(C)C)c(C)c1 [JF-C72, N-Hydroxy-2-(4-(3-(4-((2S)-hydroxy-3,3-dimethylbutoxy)-3-methylphenyl)pentan-3-yl)-2-methylphenoxy)acetamide]			low micromolar potency	VDR agonists with similar potencies	induced binding of the VDR							
